# Test results reported in PubChem BioAssay (NCI).
#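 Briefly, cells in 96-well plates were exposed to five compound concentrations for 48 h, and endpoints were estimated by linear interpolation. GI50 marks 50% less growth. TGI: total growth inhibition.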
# Columns and labels:
# Test in all cases: DTP human tumour cell line panel, 48 h
# [1] = tested on: 786-0 renal
# [2] = tested on: BT-549 breast
# [3] = tested on: HS 578T breast
# [4] = tested on: HT29 colon
# [5] = tested on: NCI-H23 lung
# [6] = tested on: NCI-H460 lung
# [7] = tested on: OVCAR-8 ovarian
# [8] = tested on: TK-10 renal
Structure (SMILES),GI50 [1] [µM],TGI [1] [µM],GI50 [2] [µM],TGI [2] [µM],GI50 [3] [µM],TGI [3] [µM],GI50 [4] [µM],TGI [4] [µM],GI50 [5] [µM],TGI [5] [µM],GI50 [6] [µM],TGI [6] [µM],GI50 [7] [µM],TGI [7] [µM],GI50 [8] [µM],TGI [8] [µM]
O=Nc1ccc2ccccc2c1O,18.4,32.8,17.7,31.6,1.56,5.07,3.46,13.4,3.18,16.1,15.5,36.6,2.67,6.63,11.8,24.5
NC1=NC(c2ccc(Cl)cc2)C2=C(N1)/C(=C/c1ccc(Cl)cc1)CCC2 (stereo unspecified),9.42,29.7,2.74,10.7,7.97,> 29.9,3.14,9.78,5.98,26.7,12.2,29.8,4.24,> 32.4,27.4,86.8
COc1ccc2c(c1)C(=O)/C(=C/c1ncc([N+](=O)[O-])n1C)O2,1.51,5.07,0.618,1.99,0.74,10.9,0.244,0.78,1.02,4.76,0.934,7.38,0.261,2.81,1.38,13.8
COc1ccc(/C=C\c2cc(OC)c(OC)c(OC)c2)cc1OC(=O)CCC(=O)O,0.0121,> 100,,> 100,,> 100,,12.2,,> 100,,31.5,,69.6,,> 100
COc1cc(-c2nc3sc4c(c3c(=O)[nH]2)CCCCCC4)cc(OC)c1OC,1.46,23.2,1.26,19,0.922,9.76,,,1.43,> 33.2,1.2,> 33.2,1.52,> 33.2,13.8,> 33.2
COc1cc(/C=C2\CN(C)C/C(=C\c3cc(CN4CCCCC4)c(O)c(OC)c3)C2=O)cc(CN2CCCCC2)c1O,3.92,14.5,4.61,16.3,3.27,80.6,2.43,6.42,5.11,21.4,2.18,5.13,3.12,> 100,,
CCOC(=O)/C=C/C(C(=O)/C=C/c1ccc(O)c(OC)c1)=C(O)\C=C\c1ccc(O)c(OC)c1,1.98,6.68,,,4.25,41.7,1.83,6.6,1.73,4.42,20,54.4,2.21,5.91,5.3,29.2
Cc1cc(=O)oc2cc(OCc3c(F)cccc3Cl)ccc12,,40.2,,> 100,,99.1,,,,> 100,,,,> 100,,> 100
COc1ccc(-c2ccc(-c3ccc(-c4ccc(C(=N)N)cc4)s3)s2)cc1OC,18.4,49.7,17.3,46.8,21.2,48.1,,,2.43,6.26,,,3.76,> 100,,
COc1ccc(/C=C/C(=O)Oc2cc(O)cc(O)c2)cc1,,> 100,,> 100,,,,> 100,,> 100,,> 100,,> 100,,> 100
S=C1Nc2ccc(Cl)cc2C2(c3ccccc3)N3CCN=C3NN12 (stereo unspecified),38.3,> 100,30.8,> 100,,,28.1,> 100,> 100,> 100,23.7,74.7,52.3,> 100,35.1,> 100
Cc1c(C)[n+](=O)c(C)c(C)n1[O-],> 100,> 100,,,> 100,> 100,,,> 100,> 100,> 100,> 100,> 100,> 100,,
O=c1cc(-c2ccccc2)[nH]n1-c1nc2ccccc2[nH]1,4.8,46.6,7.03,> 100,7.47,> 100,,,9.69,> 100,2.51,> 100,4.5,> 100,17.7,> 100
COC(=O)C1(F)C(=O)NC(=O)NC1O (stereo unspecified),,> 100,,,,> 100,,> 100,,> 100,,> 100,,> 100,,> 100
O=C(Nc1ccc(Cl)cc1)c1cc(-c2ccc(Cl)cc2)c2sc(=O)[nH]c2n1,2.64,20.6,2.08,6.88,3.04,21.5,2.13,6.29,1.24,6.85,2.19,12.6,2.04,12.8,,
